Measured values taken from the NIST ThermoML archive (doi:10.1016/j.fluid.2014.07.036).
Numbers after ± are expanded uncertainties.

Assay: refractive index (other wavelength) (dimensionless); xn = mol fraction of the nth substance listed
Details: 85 kPa, Liquid, Wavelength=632.8 nm, minimum deviation angle

CCCCCCCC[n+]1ccn(C)c1.F[B-](F)(F)F [1-methyl-3-octylimidazolium tetrafluoroborate] + CCCCCO
Details	refractive index
281.39 K, x1 = 0.012	1.4139 ± 0.0003
281.39 K, x1 = 0.339	1.4262 ± 0.0003
282.13 K, x1 = 0.014	1.4137 ± 0.0003
282.13 K, x1 = 0.33	1.4257 ± 0.0003
282.87 K, x1 = 0.015	1.4135 ± 0.0003
282.87 K, x1 = 0.32	1.4252 ± 0.0003
283.57 K, x1 = 0.018	1.4134 ± 0.0003
283.57 K, x1 = 0.315	1.4248 ± 0.0003
284.24 K, x1 = 0.019	1.4132 ± 0.0003
284.24 K, x1 = 0.305	1.4243 ± 0.0003
284.89 K, x1 = 0.02	1.413 ± 0.0003
284.89 K, x1 = 0.295	1.4238 ± 0.0003
285.51 K, x1 = 0.021	1.4128 ± 0.0003
285.51 K, x1 = 0.285	1.4233 ± 0.0003
286.09 K, x1 = 0.021	1.4126 ± 0.0003
286.09 K, x1 = 0.278	1.4229 ± 0.0003
286.64 K, x1 = 0.023	1.4125 ± 0.0003
286.64 K, x1 = 0.268	1.4224 ± 0.0003
287.13 K, x1 = 0.025	1.4124 ± 0.0003
287.13 K, x1 = 0.257	1.4219 ± 0.0003
287.58 K, x1 = 0.026	1.4123 ± 0.0003
287.58 K, x1 = 0.246	1.4214 ± 0.0003
287.98 K, x1 = 0.029	1.4123 ± 0.0003
287.98 K, x1 = 0.238	1.421 ± 0.0003
288.34 K, x1 = 0.03	1.4122 ± 0.0003
288.34 K, x1 = 0.23	1.4206 ± 0.0003
288.64 K, x1 = 0.032	1.4122 ± 0.0003
288.64 K, x1 = 0.224	1.4203 ± 0.0003
288.88 K, x1 = 0.034	1.4122 ± 0.0003
288.88 K, x1 = 0.217	1.42 ± 0.0003
289.09 K, x1 = 0.035	1.4122 ± 0.0003
289.09 K, x1 = 0.214	1.4198 ± 0.0002
289.29 K, x1 = 0.038	1.4123 ± 0.0003
289.29 K, x1 = 0.207	1.4195 ± 0.0003
289.44 K, x1 = 0.039	1.4123 ± 0.0003
289.44 K, x1 = 0.203	1.4193 ± 0.0002
289.63 K, x1 = 0.041	1.4123 ± 0.0003
289.63 K, x1 = 0.196	1.419 ± 0.0002
289.73 K, x1 = 0.042	1.4123 ± 0.0003
289.73 K, x1 = 0.191	1.4188 ± 0.0002
289.86 K, x1 = 0.044	1.4124 ± 0.0003
289.86 K, x1 = 0.19	1.4187 ± 0.0003
289.98 K, x1 = 0.047	1.4125 ± 0.0003
289.98 K, x1 = 0.186	1.4185 ± 0.0002
290.07 K, x1 = 0.05	1.4126 ± 0.0003
290.07 K, x1 = 0.181	1.4183 ± 0.0003
290.16 K, x1 = 0.052	1.4127 ± 0.0003
290.16 K, x1 = 0.179	1.4182 ± 0.0003
290.25 K, x1 = 0.055	1.4128 ± 0.0003
290.25 K, x1 = 0.175	1.418 ± 0.0003
290.31 K, x1 = 0.059	1.413 ± 0.0003
290.31 K, x1 = 0.173	1.4179 ± 0.0002
290.38 K, x1 = 0.062	1.4131 ± 0.0003
290.38 K, x1 = 0.168	1.4177 ± 0.0002
290.43 K, x1 = 0.066	1.4133 ± 0.0003
290.43 K, x1 = 0.166	1.4176 ± 0.0003
290.49 K, x1 = 0.069	1.4134 ± 0.0003
290.49 K, x1 = 0.161	1.4174 ± 0.0003
290.49 K, x1 = 0.598	1.4284 ± 0.0002
290.5 K, x1 = 1	1.4338 ± 0.0003
290.52 K, x1 = 0.071	1.4135 ± 0.0003
290.52 K, x1 = 0.156	1.4172 ± 0.0003
290.56 K, x1 = 0.076	1.4137 ± 0.0003
290.56 K, x1 = 0.1	1.4148 ± 0.0002
290.56 K, x1 = 0.151	1.417 ± 0.0003
290.59 K, x1 = 0.797	1.4313 ± 0.0003
290.59 K, x1 = 0.898	1.4327 ± 0.0003
290.6 K, x1 = 0.078	1.4138 ± 0.0003
290.6 K, x1 = 0.147	1.4168 ± 0.0003
290.61 K, x1 = 0.08	1.4139 ± 0.0003
290.61 K, x1 = 0.144	1.4167 ± 0.0003
290.65 K, x1 = 0.085	1.4141 ± 0.0003
290.65 K, x1 = 0.137	1.4164 ± 0.0003
290.66 K, x1 = 0.087	1.4142 ± 0.0003
290.66 K, x1 = 0.132	1.4162 ± 0.0003
290.67 K, x1 = 0.089	1.4143 ± 0.0003
290.67 K, x1 = 0.091	1.4144 ± 0.0003
290.67 K, x1 = 0.128	1.416 ± 0.0003
290.67 K, x1 = 0.13	1.4161 ± 0.0003
290.67 K, x1 = 0.697	1.4299 ± 0.0003
290.68 K, x1 = 0.094	1.4145 ± 0.0003
290.68 K, x1 = 0.096	1.4146 ± 0.0003
290.68 K, x1 = 0.098	1.4147 ± 0.0003
290.68 K, x1 = 0.118	1.4156 ± 0.0003
290.68 K, x1 = 0.121	1.4157 ± 0.0003
290.68 K, x1 = 0.123	1.4158 ± 0.0003
290.68 K, x1 = 0.125	1.4159 ± 0.0003
290.76 K, x1 = 0.498	1.4264 ± 0.0002
290.93 K, x1 = 0.396	1.4243 ± 0.0002
290.95 K, x1 = 0.2	1.4185 ± 0.0002
291.87 K, x1 = 1	1.4334 ± 0.0003
292.22 K, x1 = 0.898	1.4322 ± 0.0003
292.28 K, x1 = 0.598	1.4279 ± 0.0002
292.3 K, x1 = 0.797	1.4308 ± 0.0003
292.33 K, x1 = 0.498	1.4259 ± 0.0002
292.39 K, x1 = 0.697	1.4294 ± 0.0003
292.67 K, x1 = 0.396	1.4237 ± 0.0002
292.68 K, x1 = 0.2	1.4179 ± 0.0002
292.95 K, x1 = 0.1	1.414 ± 0.0002
293.43 K, x1 = 1	1.433 ± 0.0003
294.01 K, x1 = 0.498	1.4253 ± 0.0002
294.06 K, x1 = 0.898	1.4317 ± 0.0003
294.07 K, x1 = 0.598	1.4273 ± 0.0002
294.09 K, x1 = 0.797	1.4303 ± 0.0003
294.12 K, x1 = 0.697	1.4289 ± 0.0003
294.44 K, x1 = 0.396	1.423 ± 0.0002
294.76 K, x1 = 0.2	1.4171 ± 0.0002
295.04 K, x1 = 0.1	1.4132 ± 0.0002
295.05 K, x1 = 1	1.4325 ± 0.0003
295.73 K, x1 = 0.498	1.4248 ± 0.0002
295.84 K, x1 = 0.598	1.4268 ± 0.0002
295.89 K, x1 = 0.898	1.4312 ± 0.0003
295.91 K, x1 = 0.797	1.4299 ± 0.0003
295.92 K, x1 = 0.697	1.4283 ± 0.0003
296.31 K, x1 = 0.396	1.4224 ± 0.0002
296.55 K, x1 = 0.2	1.4165 ± 0.0002
296.68 K, x1 = 1	1.4321 ± 0.0003
297.32 K, x1 = 0.1	1.4124 ± 0.0002
297.61 K, x1 = 0.797	1.4294 ± 0.0003
297.68 K, x1 = 0.697	1.4278 ± 0.0003
297.69 K, x1 = 0.498	1.4241 ± 0.0002
297.71 K, x1 = 0.598	1.4262 ± 0.0002
297.84 K, x1 = 0.898	1.4306 ± 0.0003
298.31 K, x1 = 0.396	1.4217 ± 0.0002
298.41 K, x1 = 1	1.4316 ± 0.0003
298.67 K, x1 = 0.2	1.4158 ± 0.0002
299.26 K, x1 = 0.1	1.4116 ± 0.0002
299.58 K, x1 = 0.697	1.4273 ± 0.0003
299.58 K, x1 = 0.797	1.4288 ± 0.0003
299.74 K, x1 = 0.498	1.4235 ± 0.0002
299.74 K, x1 = 0.598	1.4256 ± 0.0002
299.92 K, x1 = 0.898	1.43 ± 0.0003
300.25 K, x1 = 1	1.4311 ± 0.0003
300.61 K, x1 = 0.396	1.4209 ± 0.0002
300.68 K, x1 = 0.2	1.4151 ± 0.0002
301.73 K, x1 = 0.1	1.4107 ± 0.0002
302.04 K, x1 = 1	1.4305 ± 0.0003

CCCCCCO [hexan-1-ol] + CCCCCCCC[n+]1ccn(C)c1.F[B-](F)(F)F
x2 = 0
Details	refractive index
293.99 K	1.4165 ± 0.0002
295.93 K	1.4156 ± 0.0002
297.36 K	1.4151 ± 0.0002
298.94 K	1.4145 ± 0.0002
300.69 K	1.4138 ± 0.0002
303.34 K	1.4128 ± 0.0002
304.77 K	1.4122 ± 0.0002
306.24 K	1.4117 ± 0.0002

CCCCCO [pentan-1-ol] + CCCCCCCC[n+]1ccn(C)c1.F[B-](F)(F)F
x2 = 0
Details	refractive index
290.68 K	1.4096 ± 0.0002
292.95 K	1.4087 ± 0.0002
295.03 K	1.4079 ± 0.0002
297.17 K	1.4071 ± 0.0002
299.35 K	1.4062 ± 0.0002
301.73 K	1.4053 ± 0.0002
